Experimental data as given in PubChem BioAssay AID1918986 (Small Molecule Screening Facility, UW Madison, 2023).
Activity calls are given as the source filed them.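 Rule for the calls: active = full-shape inhibition curve with partial efficacy, or partial curve whose IC50 upper confidence bound lies within tested doses; inactive = the rest.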

Target: Klebsiella pneumoniae PriA-SSB C-terminal tail interaction
Assay: inhibitors of PriA–SSB C-terminal tail binding, dose response, biochemical, AlphaScreen, virtual screen prioritized set (AID 1918986)
Conditions: PriA binding to biotinylated SSBct peptide

O=C(Cc1ccc(S(=O)(=O)N2CCOCC2)s1)Nc1nc(-c2ccccn2)cs1
outcome: inactive

CCc1nc(C)c(CSc2cccc3cccnc23)o1
outcome: inactive

Cc1cc(C)cc(OCCN(C)C(=O)CSc2cccc3cccnc23)c1
outcome: inactive

CC(C)c1ncc(-c2cccc3cccnc23)n1C
outcome: inactive

C(=NNc1ncnc2nc[nH]c12)c1ccccn1
IC50: 1.29 µM

O=[N+]([O-])c1ccc(SC2CCCCC2)c2ncccc12
IC50: inactive

Cc1nn(C(C)C)cc1-c1ccc2cccnc2c1C
outcome: inactive

CCOC(=O)c1[nH]c(C)c(C(=O)CSc2cccc3cccnc23)c1C
outcome: inactive

Cc1ccc(-c2nc(SCC(=O)NCc3ccnc(-c4ccccn4)n3)n[nH]2)cc1
IC50: 37.8 µM

O=C(O)CSc1ccc([N+](=O)[O-])c2cccnc12
outcome: inactive

CC1CC(Nc2nc(-c3ccccn3)nc3c2CCC3)CC(C)N1 (stereo not drawn)
IC50: 12.1 µM

Cc1cc(-c2ccccn2)n[nH]1
outcome: inactive

CO[C@H](C)[C@@H](C)Nc1nc(-c2ccccn2)nc2c1CCC2
IC50: 13.9 µM

c1cnc2c(Cn3ccnc3)cccc2c1
outcome: inactive

Cc1nc(SCC(=O)Nc2n[nH]c(-c3ccccn3)n2)n[nH]1
IC50: 15.5 µM

C1=C(c2cccc3cccnc23)CCNC1
outcome: inactive

c1ccc(-c2ncc[nH]2)nc1
IC50: 15.7 µM

Nc1ncc(-c2ccccn2)cn1
outcome: inactive

CSCC(CCO)Nc1ccnc2c1ccc1cccnc12 (stereo not drawn)
IC50: 10.8 µM

CCOC(=O)c1c(C)[nH]c(C(=O)CSc2cccc3cccnc23)c1C
outcome: inactive

O=c1[nH]c(NN=Cc2ccccn2)nc2ccccc12
outcome: inactive

COC(C)COc1ccc2ccc3cccnc3c2n1 (stereo not drawn)
outcome: inactive

c1cnc2c(SCc3ccn4ncnc4c3)cccc2c1
outcome: inactive

c1ccc(-c2cnc3n2CCC3)nc1
outcome: inactive

c1cc2c(c(-c3cccc4cccnc34)c1)CNC2
outcome: inactive

O=C(O)c1cc(C(=O)N2CCS(=O)(=O)CC2)ccn1
outcome: inactive

OCCC(Nc1ccnc2c1ccc1cccnc12)C(F)F (stereo not drawn)
IC50: 4.48 µM

Fc1cccc(CNc2nc(-c3ccccn3)nc3c2CCC3)c1F
IC50: 6.11 µM

FC(F)(F)c1cnc(NN=Cc2ccccn2)c(Cl)c1
IC50: 20.2 µM

O[C@@H]1COC[C@@H]1Nc1ccc2ccc3cccnc3c2n1
IC50: 4.26 µM

COc1cc([N+](=O)[O-])c(C(=O)Nc2nc(-c3ccccn3)cs2)cc1SC
IC50: 7.02 µM

CC(C)N(C)S(=O)(=O)c1ccc(F)c(C(=O)Nc2nc(-c3ccccn3)cs2)c1
IC50: 6.82 µM

CCCN1CCCc2cc(C(C)C)ccc21
outcome: inactive

O=C1CC2(CCOC2)C(C(=O)Nc2nc(-c3ccccn3)cs2)CN1 (stereo not drawn)
IC50: 12.6 µM

CC1Sc2ccc(C(=O)Nc3nc(-c4ccccn4)cs3)cc2NC1=O (stereo not drawn)
IC50: 7.99 µM

O=[N+]([O-])c1cc(Cl)cc(C=Nc2ccc(Cl)c3ncccc23)c1O
outcome: inactive

Clc1cccnc1NN=Cc1ccccn1
outcome: inactive

Cn1ccc(C23CCC(C2)C3C(=O)Nc2nc(-c3ccccn3)cs2)n1 (stereo not drawn)
IC50: 22.2 µM

Clc1cncnc1NN=Cc1ccccn1
IC50: 1.7 µM

Oc1cccnc1SCc1ccc(F)c2cccnc12
outcome: inactive

CC1CCC(=NNc2ccccc2[N+](=O)[O-])CC1 (stereo not drawn)
IC50: 3.64 µM

c1cncc(CSCc2cccc3cccnc23)c1
outcome: inactive

c1cc(CSc2cccc3cccnc23)cc(CN2CCOCC2)c1
outcome: inactive

O=c1[nH]ncc(NN=Cc2ccccn2)c1Cl
outcome: inactive

O=C(CSc1cccc2cccnc12)Nc1cccc(N2CCCC2=O)c1
outcome: inactive

c1ccc(-c2csc(NC3COC4(CCC4)C3)n2)nc1 (stereo not drawn)
outcome: inactive

O=[N+]([O-])c1ncn(Cc2cccc3cccnc23)n1
outcome: inactive

Cc1ccc(-n2nc(C)cc2NC(=O)CSc2cccc3cccnc23)cc1
outcome: inactive

O=C(Nc1nc(-c2ccccn2)cs1)c1ccc(Cl)c(S(=O)(=O)NCC2CCCO2)c1 (stereo not drawn)
IC50: 10 µM

Fc1cccc2[nH]c(-c3ccccn3)nc12
outcome: inactive

CN(C)CCN(C)c1ccc2ccc3cccnc3c2n1
outcome: inactive

Cc1cccc2nc(CSc3cccc4cccnc34)cn12
outcome: inactive

C1=C[C@@H](CNc2nc(-c3ccccn3)cs2)[C@H]2CO[C@@H]1C2
IC50: 11.5 µM

O=C(O)c1cc(-c2ccccc2)ccn1
IC50: 21 µM

Cc1c(N)nc(-c2ccccn2)nc1NCC1CCC(C2CC2)O1 (stereo not drawn)
IC50: 5.44 µM

OCCCCNc1ccc2ccc3cccnc3c2n1
IC50: 4.33 µM

c1ccc(-c2nc3c(c(N4CCCC4)n2)CCC3)nc1
IC50: 17.6 µM

C(=NNc1ncnc2sccc12)c1ccccn1
IC50: 2.68 µM

OCCCN(CCO)c1ccc2ccc3cccnc3c2n1
outcome: inactive

CC1(C)CC(CSc2cccc3cccnc23)=NO1
outcome: inactive

CSCC(CCO)Nc1ccc2ccc3cccnc3c2n1 (stereo not drawn)
IC50: 9.08 µM

c1ccc(-c2n[nH]c3ccccc23)nc1
outcome: inactive

CC1CC(Nc2nc(-c3ccccn3)cs2)C1 (stereo not drawn)
IC50: 13.1 µM

O=C(Nc1nc(-c2ccccn2)cs1)C1(C2CCCCO2)CCCO1 (stereo not drawn)
outcome: inactive

c1cnc2c(SCCn3cncn3)cccc2c1
outcome: inactive

O=C(CN1C(=O)COc2ccc([N+](=O)[O-])cc21)Nc1nc(-c2ccccn2)cs1
IC50: 12.4 µM

Clc1ccc(CN2CCOCCOCC2)c2ncccc12
outcome: inactive

CC(C)(C)c1ncc(-c2cccc3cccnc23)o1
outcome: inactive
